Laboratory results reported in US9107964B2, “Radioactive fluorine-labeled compound” (NIHON MEDI-PHYSICS CO., LTD., priority 2011, dated 2015).
Entries after “also recorded” stand apart in the source; their conditions may differ.

Experiments:
Format in all cases: in vivo, mouse (Balb/c nu/nu)
[1] = system: mouse-derived breast cancer cell line (EMT6) tumor-bearing model mice; assay: PET imaging of tumor-bearing model mice (incorporation into tumor cells, Example 10); conditions: 60 minutes after administration; for Physiological accumulation in the liver compared with [^18F]FMISO: coronal tomographic PET image; for Excretion route: from coronal tomographic PET image
Description: Accumulation of compound 1, compound 2, and compound 3 in tumor cells in vivo was studied as follows using a mouse-derived breast cancer cell line (EMT6).
Preparation of tumor-bearing model mice: the animals used were six-week-old female Balb/c nu/nu mice (obtained from Japan SLC). Using these animals, a Matrigel suspension (cell count 2.5×10^6 cells/0.05 mL) of EMT6, which is a mouse-derived breast cancer cell line (obtained from ATCC), was subcutaneously implanted in a site from the right rib to the right shoulder. It was confirmed on the third day after implantation that the tumor cells were fixed, and the tumor volume attained 200 to 400 mm^3 9 to 11 days after implantation.

[2] = system: EMT6 tumor-bearing model mice; assay: Biodistribution in tumor and organs of tumor-bearing mouse (Example 14); conditions: for Blood / Gall bladder / Heart / Kidney / Large intestine / Liver / Lung / Muscle / Small intestine / Stomach / T/B (tumor/blood ratio) / T/M (tumor/muscle ratio) / Tumor / Urine: mean; for Blood clearance and urinary excretion: compared with [^18F]FMISO, 60 and 120 minutes after administration
Description: The biodistribution of compounds 1 to 3 and [^18F]FMISO in a tumor and each of the organs of a tumor-bearing mouse was measured.
Tumor-bearing model mice used in this experiment were the same as those prepared in Example 10, and 3 or 4 cases that had attained a tumor volume of 200 to 400 mm^3 were selected from each group. The tumor-bearing model mouse was placed under isoflurane anesthesia, pimonidazole that is a hypoxic marker, was administered via a tail vein, and at 10 minutes thereafter, the respective labeled compound was administered. The tumor-bearing model mouse was sacrificed at 60 minutes and 120 minutes after administration. All of the tumor-bearing model mice were sacrificed by blood-letting from the abdominal aorta or by cardiocentesis, and dissection was carried out immediately thereafter. Other than the tumor, the blood, heart, lung, stomach, liver, gallbladder, kidney, small intestine and large intestine, muscle, and urine were sampled, and the other tissues were defined as the remaining whole body. After the weight of each tissue sampled was measured, the amount of radioactivity of the tissue was measured using a gamma counter, and the biodistribution of each of the labeled compounds was compared by converting it into % ID/g (% injection dose/g organ) of each tissue.
In order to examine a hypoxic state within the tumor, immunohistochemical staining of the sample tumor was carried out so as to ascertain whether or not the interior of the tumor was hypoxic. The sampled tumor was fixed using a 20% formalin buffer, and a paraffin block was prepared using an automatic paraffin-embedding apparatus (model: VIP-5-Jr-J0, Sakura Finetek). A slice (thickness: 3 μm) was prepared by means of a microtome (model: Tissue-Tek Feather Trustome, Sakura Finetek). Immunohistochemical staining was carried out by the same method as in Example 12.

[3] = system: hypoxic region of EMT6 tumor (pimonidazole-positive area); assay: Correlation between autoradiographic signal intensity (PSL value) and pimonidazole-positive area (Example 13); conditions: tumor tissue sections after PET imaging
Description: In order to evaluate whether or not the compound related to the present invention can quantitatively visualize a hypoxic region of a tumor, the following experiment was carried out using compounds 1 to 3 and [^18F]FMISO.
Using a microscope system (model: BZ-9000, Keyence Corporation) a high magnification image of a pimonidazole-positive site was acquired using the entire image of a pathology image obtained by immunohistochemical staining in the Example 12 and a 10× objective lens. The high magnification image was formed with respect to a randomly selected image region. At the same time the image acquisition site was recorded as a navigation image by use of the navigation function of the microscope system. The acquired high magnification image was subjected to image processing, and a pimonidazole-positive area present in the high magnification image was determined.
The autoradiographic image and the stained image of each labeled compound used were those acquired in the Example 12. The resolution of the navigation image was made to match the resolution of the autoradiographic image, and the geometrical positions of two images were aligned using image analysis software.
In the autoradiographic image, an ROI was set for the site that coincided with the high magnification image acquisition site, and the PSL value (Photo-Stimulated Luminescence value) of the ROI was determined. Furthermore, an ROI was set for a site of the same image that contained no sample, and the PSL value thereof was defined as the background. The PSL value of the background was subtracted from the PSL value of the high magnification image acquisition site to obtain the net PSL value. The hypoxic marker pimonidazole-positive area was plotted on the abscissa and the PSL value in the autoradiographic image on the ordinate, and the correlation factor was determined. This series of operations was carried out for each of the labeled compounds.

[4] = 60 minutes after administration
[5] = 120 minutes after administration

SMILES | Sites of accumulation on coronal tomographic image [1] | Tumor-specific accumulation on axial tomographic image [1] | Physiological accumulation in the liver compared with [^18F]FMISO [1] | Excretion route [1] | Blood [2, 4] | Gall bladder [2, 4] | Heart [2, 4] | Kidney [2, 4] | Large intestine [2, 4] | Liver [2, 4] | Lung [2, 4] | Muscle [2, 4] | Small intestine [2, 4] | Stomach [2, 4] | T/B (tumor/blood ratio) [2, 4] | T/M (tumor/muscle ratio) [2, 4] | Tumor [2, 4] | Urine [2, 4] | Blood [2, 5] | Gall bladder [2, 5] | also measured
O=[N+]([O-])c1nccn1CC(CO)(CO)C[18F] [Compound 1, 1-(2,2-Dihydroxymethyl-3-[^18F]fluoropropyl)-2-nitroimidazole] | intense accumulation of compound 1 in the bladder, and accumulation thereof in the gallbladder and the intestinal tract | tumor-specific accumulation separated from normal tissue such as muscle | low physiological accumulation in the liver | excreted via the kidney and urinary tract excretion and hepatobiliary excretion systems | 1.70 % ID/g | 26.34 % ID/g | 2.35 % ID/g | 4.23 % ID/g | 3.71 % ID/g | 3.34 % ID/g | 1.96 % ID/g | 1.71 % ID/g | 3.72 % ID/g | 1.53 % ID/g | 1.42 | 1.39 | 2.38 % ID/g | 62.13 % ID | 0.75 % ID/g | 8.21 % ID/g | Heart [2, 5]: 1.90 % ID/g; Kidney [2, 5]: 2.91 % ID/g; Large intestine [2, 5]: 2.37 % ID/g; Liver [2, 5]: 4.31 % ID/g; Lung [2, 5]: 0.89 % ID/g; Muscle [2, 5]: 0.84 % ID/g; Small intestine [2, 5]: 2.78 % ID/g; Stomach [2, 5]: 0.88 % ID/g; T/B (tumor/blood ratio) [2, 5]: 2.47; T/M (tumor/muscle ratio) [2, 5]: 2.03; Tumor [2, 5]: 1.65 % ID/g; Urine [2, 5]: 77.76 % ID; Blood clearance and urinary excretion [2]: rapid blood clearance and urinary excretion compared with [^18F]FMISO; Correlation coefficient (pimonidazole-positive area vs PSL value in autoradiographic image) [3]: 0.85
O=[N+]([O-])c1nc(CO)cn1CC(CO)(CO)C[18F] [Compound 2, 1-(2,2-Dihydroxymethyl-3-[^18F]fluoropropyl)-4-hydroxymethyl-2-nitroimidazole] | intense accumulation of compound 2 and compound 3 was found in the bladder and accumulation thereof was found in the intestinal tract | tumor-specific accumulation | low physiological accumulation in the liver | excreted mainly via the kidney and urinary tract system | 0.60 % ID/g | 7.54 % ID/g | 1.32 % ID/g | 1.86 % ID/g | 0.96 % ID/g | 1.14 % ID/g | 0.89 % ID/g | 1.25 % ID/g | 2.35 % ID/g | 0.48 % ID/g | 2.11 | 0.91 | 1.13 % ID/g | 80.42 % ID | 0.25 % ID/g | 7.33 % ID/g | Heart [2, 5]: 0.74 % ID/g; Kidney [2, 5]: 0.82 % ID/g; Large intestine [2, 5]: 0.88 % ID/g; Liver [2, 5]: 0.54 % ID/g; Lung [2, 5]: 0.34 % ID/g; Muscle [2, 5]: 0.47 % ID/g; Small intestine [2, 5]: 1.63 % ID/g; Stomach [2, 5]: 0.25 % ID/g; T/B (tumor/blood ratio) [2, 5]: 3.18; T/M (tumor/muscle ratio) [2, 5]: 1.68; Tumor [2, 5]: 0.78 % ID/g; Urine [2, 5]: 90.92 % ID; Blood clearance and urinary excretion [2]: even more rapid; Correlation coefficient (pimonidazole-positive area vs PSL value in autoradiographic image) [3]: 0.80
O=[N+]([O-])c1nccn1CCC(CO)(CO)C[18F] [Compound 3, 1-(3,3-Dihydroxymethyl-4-[^18F]fluorobutyl)-2-nitroimidazole] | intense accumulation of compound 2 and compound 3 was found in the bladder and accumulation thereof was found in the intestinal tract; also recorded: accumulation of compound 3 in the gallbladder | tumor-specific accumulation | low physiological accumulation in the liver | excreted via the kidney and urinary tract system and the hepatobiliary system | 2.81 % ID/g | 16.71 % ID/g | 3.46 % ID/g | 9.95 % ID/g | 5.40 % ID/g | 4.46 % ID/g | 2.92 % ID/g | 2.66 % ID/g | 4.68 % ID/g | 1.99 % ID/g | 0.86 | 0.87 | 2.05 % ID/g | 45.80 % ID | 1.14 % ID/g | 15.45 % ID/g | Heart [2, 5]: 1.82 % ID/g; Kidney [2, 5]: 9.20 % ID/g; Large intestine [2, 5]: 6.89 % ID/g; Liver [2, 5]: 2.13 % ID/g; Lung [2, 5]: 1.38 % ID/g; Muscle [2, 5]: 1.44 % ID/g; Small intestine [2, 5]: 3.66 % ID/g; Stomach [2, 5]: 1.26 % ID/g; T/B (tumor/blood ratio) [2, 5]: 2.11; T/M (tumor/muscle ratio) [2, 5]: 1.62; Tumor [2, 5]: 1.93 % ID/g; Urine [2, 5]: 68.78 % ID; Blood clearance and urinary excretion [2]: rapid blood clearance and urinary excretion compared with [^18F]FMISO; Correlation coefficient (pimonidazole-positive area vs PSL value in autoradiographic image) [3]: 0.61
